Experimental data published in ChEMBL document CHEMBL1201862, “PubChem BioAssay data set” (2004).
Activity calls are given as the source filed them. For most assays here, no stated cut-off is given here; in the data, actives have a measured EC50 and inactives only a lower limit.

How the values were obtained:
cells [1] = format: functional, cell-based
cells [2] = format: functional, cell-based; remark: listed apart in the source
[3] = biological target: T1, Calpain-2 catalytic subunit (Sus scrofa, UniProt P43367); test: m-calpain protease blockers, concentration series – biochemical, fluorogenic peptide substrate, dose response (AID 1420); format: functional
T1 sequence (P43367 whole entry): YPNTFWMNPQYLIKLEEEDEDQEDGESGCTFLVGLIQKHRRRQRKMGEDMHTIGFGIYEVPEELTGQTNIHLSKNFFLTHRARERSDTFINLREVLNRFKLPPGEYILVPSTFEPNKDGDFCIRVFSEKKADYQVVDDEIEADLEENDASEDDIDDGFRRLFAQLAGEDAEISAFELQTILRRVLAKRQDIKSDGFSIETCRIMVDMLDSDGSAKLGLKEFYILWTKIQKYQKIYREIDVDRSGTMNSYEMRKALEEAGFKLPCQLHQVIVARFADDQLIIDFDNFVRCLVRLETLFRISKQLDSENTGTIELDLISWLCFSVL

[4] = luciferase reporter signal suppression in cells – H4 neuroglioma cells, luminescence, dose response (AID 1990); format: functional, cell-based
[5] = fluconazole-exposed Candida albicans growth modulators – fluorescence, retest, confirmation (AID 2467); format: functional, cell-based
[6] = alpha-synuclein stem-loop luciferase translation blockers – H4 neuroglioma cells, luminescence, confirmation (AID 1988); format: functional, cell-based
INS1 = test: INS-1E survival protection against cytokine death – cell-based, luminescence, retest, dose response (AID 449756); format: functional; conditions: Rattus norvegicus;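 further: cell death triggered by IL-1 beta plus TNF-alpha plus IFN-gamma mixture; protective hits raise ATP signal compared with cytokine alone wells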
[7] = Luminescence Cell-Based Dose Response HTS to Identify Inhibitors of 5'UTR Stem-Loop Driven Prion Protein mRNA Translation in H4 Neuroglioblastoma Cells. [Related pubchem assays: 1827 (Project Summary), 1813 (Primary HTS)]; format: functional
[8] = NIH-3T3 fibroblast cytotoxicity, dose response, cytotoxicity control, cell-based, fluorescence, Alamar Blue, secondary assay (AID 2327); format: functional;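 further: NIH-3T3 mouse fibroblasts cultured with fluconazole at 8 µg/mL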
Fatty acid synthase [9] = biological target: T2, Fatty acid synthase (Homo sapiens, UniProt P49327); test: inhibition of human FAS-TE enzyme activity – biochemical, endpoint fluorescence intensity, uHTS hits, dose response (AID 624327); format: functional;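 further: fluorescence from hydrolysis of an O-methyl fluorescein acyl ester substrate by the enzyme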
T2 sequence (P49327 whole entry): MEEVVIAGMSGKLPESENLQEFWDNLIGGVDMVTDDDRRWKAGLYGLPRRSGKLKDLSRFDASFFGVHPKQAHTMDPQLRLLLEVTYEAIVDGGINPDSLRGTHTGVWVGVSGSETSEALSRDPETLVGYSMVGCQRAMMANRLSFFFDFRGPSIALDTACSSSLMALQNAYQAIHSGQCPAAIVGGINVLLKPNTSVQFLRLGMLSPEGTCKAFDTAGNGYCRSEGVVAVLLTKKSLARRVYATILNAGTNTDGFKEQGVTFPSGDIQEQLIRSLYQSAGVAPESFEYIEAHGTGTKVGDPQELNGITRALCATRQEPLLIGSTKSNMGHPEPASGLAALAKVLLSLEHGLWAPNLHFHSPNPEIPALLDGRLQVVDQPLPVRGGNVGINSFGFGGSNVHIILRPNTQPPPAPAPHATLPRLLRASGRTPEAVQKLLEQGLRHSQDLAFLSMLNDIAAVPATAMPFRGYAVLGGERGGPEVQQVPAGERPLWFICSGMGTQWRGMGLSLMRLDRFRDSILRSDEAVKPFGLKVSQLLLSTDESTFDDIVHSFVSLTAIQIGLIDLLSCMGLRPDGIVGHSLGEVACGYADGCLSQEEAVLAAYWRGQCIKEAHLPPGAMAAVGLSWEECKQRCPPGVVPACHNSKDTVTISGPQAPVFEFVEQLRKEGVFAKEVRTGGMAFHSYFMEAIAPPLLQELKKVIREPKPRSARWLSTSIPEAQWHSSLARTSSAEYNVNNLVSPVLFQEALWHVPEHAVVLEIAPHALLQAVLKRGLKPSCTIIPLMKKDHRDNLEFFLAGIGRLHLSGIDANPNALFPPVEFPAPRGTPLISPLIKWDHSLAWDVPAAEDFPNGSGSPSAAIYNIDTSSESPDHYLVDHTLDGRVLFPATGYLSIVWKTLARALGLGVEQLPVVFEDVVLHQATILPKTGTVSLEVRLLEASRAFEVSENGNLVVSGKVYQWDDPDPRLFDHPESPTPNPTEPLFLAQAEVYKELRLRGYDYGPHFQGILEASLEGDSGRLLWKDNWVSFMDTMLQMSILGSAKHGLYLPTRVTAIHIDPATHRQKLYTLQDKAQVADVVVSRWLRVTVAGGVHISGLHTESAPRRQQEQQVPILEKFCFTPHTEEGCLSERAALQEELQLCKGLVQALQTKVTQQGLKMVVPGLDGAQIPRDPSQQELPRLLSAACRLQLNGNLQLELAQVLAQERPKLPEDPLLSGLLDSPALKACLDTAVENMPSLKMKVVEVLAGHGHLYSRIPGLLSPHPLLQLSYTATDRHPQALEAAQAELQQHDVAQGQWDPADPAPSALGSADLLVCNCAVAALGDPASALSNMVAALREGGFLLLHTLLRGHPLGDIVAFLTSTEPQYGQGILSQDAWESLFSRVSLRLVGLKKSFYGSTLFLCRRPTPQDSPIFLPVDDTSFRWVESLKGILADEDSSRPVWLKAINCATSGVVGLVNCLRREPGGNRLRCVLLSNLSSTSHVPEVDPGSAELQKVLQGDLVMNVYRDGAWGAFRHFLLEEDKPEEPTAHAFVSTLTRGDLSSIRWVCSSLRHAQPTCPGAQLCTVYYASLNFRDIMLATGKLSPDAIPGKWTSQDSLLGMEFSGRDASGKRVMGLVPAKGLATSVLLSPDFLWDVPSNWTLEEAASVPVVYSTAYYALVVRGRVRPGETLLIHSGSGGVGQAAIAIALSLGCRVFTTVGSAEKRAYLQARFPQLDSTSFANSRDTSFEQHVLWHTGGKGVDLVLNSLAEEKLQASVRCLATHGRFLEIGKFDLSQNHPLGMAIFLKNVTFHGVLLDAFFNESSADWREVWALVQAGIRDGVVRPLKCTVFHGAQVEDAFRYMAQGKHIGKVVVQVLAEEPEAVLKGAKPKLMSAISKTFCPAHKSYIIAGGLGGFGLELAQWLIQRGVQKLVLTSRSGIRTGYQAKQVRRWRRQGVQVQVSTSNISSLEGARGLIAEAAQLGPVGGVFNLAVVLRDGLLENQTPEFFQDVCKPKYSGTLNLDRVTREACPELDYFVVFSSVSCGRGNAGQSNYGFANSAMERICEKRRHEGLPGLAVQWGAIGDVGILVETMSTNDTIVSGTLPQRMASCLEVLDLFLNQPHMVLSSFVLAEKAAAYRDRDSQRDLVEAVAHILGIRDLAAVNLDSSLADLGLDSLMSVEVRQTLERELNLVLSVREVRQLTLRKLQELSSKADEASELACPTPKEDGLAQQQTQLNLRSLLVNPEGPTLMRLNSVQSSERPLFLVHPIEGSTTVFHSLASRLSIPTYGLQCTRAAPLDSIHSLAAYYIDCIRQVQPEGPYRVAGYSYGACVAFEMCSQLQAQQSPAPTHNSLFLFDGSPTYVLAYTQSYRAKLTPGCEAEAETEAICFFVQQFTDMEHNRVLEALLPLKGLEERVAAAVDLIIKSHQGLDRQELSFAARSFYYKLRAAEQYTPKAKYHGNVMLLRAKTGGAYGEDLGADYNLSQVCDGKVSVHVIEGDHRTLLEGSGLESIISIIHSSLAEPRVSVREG

Fatty acid synthase [10] = biological target: T2, Fatty acid synthase; test: inhibition of human FAS-TE enzyme activity – biochemical, kinetic fluorescence intensity, dose response (AID 624326); format: functional;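 further: rate of fluorescence rise from hydrolysis of a fluorogenic O-methyl fluorescein ester substrate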
[11] = DRD fibroblast viability loss – cell-based, non-viral oncogenic, luminescence, dose response (AID 1934); format: functional; conditions: Homo sapiens
BJ [12] = test: cells; format: functional, cell-based; conditions: Homo sapiens
BJ [13] = test: BJ-TERT fibroblast viability loss – cell-based, RAS-independent, luminescence, dose response (AID 1933); format: functional; conditions: Homo sapiens
[14] = HEK-293T viability loss after treatment – luminescence, T-cell screen hits, cytotoxicity control for TCR NF-kB inhibitor project, dose response (AID 489026); format: functional, cell-based;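 further: cells exposed to compound about 14 hours before the viability readout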
BJ [15] = test: BJ-TERT-LT-ST fibroblast viability loss – cell-based, RAS-independent, luminescence, dose response (AID 1935); format: functional; conditions: Homo sapiens;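 further: BJ fibroblasts immortalized with TERT plus LT and ST oncogenes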
[16] = non-specific 3'UTR reporter inhibition in Clone20-Shn3RL – cell-based, Renilla luciferase, cherry-picked, counter-screen for Shn3 inhibitor project, dose response (AID 624133); format: functional
[17] = reduction of Shn3 3'UTR-driven luciferase in osteoblasts – cell-based, Clone20 osteoblasts, firefly luciferase, cherry-picked, dose response (AID 624132); format: functional;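 further: firefly luciferase luminescence from reporter carrying the Shn3 3'UTR in osteoblasts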
[18] = loss of viability in HepG2 cells – cell-based, CellTiter-Glo, cherry-picked, cytotoxicity control for Shn3 inhibitor project, dose response (AID 624134); format: functional
[19] = Luminescence Cell-Based Dose Retest to Confirm Inhibitors of Cancer Stem Cells. [Related pubchem assays (depositor defined):AID2717, AID2721]; format: functional; conditions: Homo sapiens
[20] = biological target: T3, Heat shock factor protein 1 (Mus musculus, UniProt P38532); test: enhancement of HSF1-driven luciferase signal – cell-based, NIH3T3, luminescence, dose retest, confirmation (AID 435004); format: functional;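 further: stress induced by proteasome inhibitor MG132 added 30 min after compound; luciferase reporter driven by HSF1 response element in NIH3T3 cells; actives raise luminescence as potentiators of the MG132 stress response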
T3 sequence (P38532 whole entry): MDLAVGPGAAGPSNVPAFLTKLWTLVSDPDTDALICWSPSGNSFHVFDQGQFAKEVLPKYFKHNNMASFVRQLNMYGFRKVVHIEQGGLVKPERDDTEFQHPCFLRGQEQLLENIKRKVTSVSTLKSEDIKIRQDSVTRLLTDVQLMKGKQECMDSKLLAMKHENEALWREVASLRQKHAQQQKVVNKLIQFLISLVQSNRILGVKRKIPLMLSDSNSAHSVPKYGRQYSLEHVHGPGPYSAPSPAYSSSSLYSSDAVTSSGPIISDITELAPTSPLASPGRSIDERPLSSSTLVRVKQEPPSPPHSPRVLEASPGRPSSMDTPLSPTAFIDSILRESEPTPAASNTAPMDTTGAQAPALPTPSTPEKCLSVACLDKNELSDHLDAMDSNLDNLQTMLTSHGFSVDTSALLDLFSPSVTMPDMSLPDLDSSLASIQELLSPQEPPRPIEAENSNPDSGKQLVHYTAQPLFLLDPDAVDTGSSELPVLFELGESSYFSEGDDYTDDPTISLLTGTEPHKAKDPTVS

Streptococcus = test: GAS UMAA2166 growth inhibition – luminescence, BacTiterGlo, counter-screen for streptokinase expression inhibitor project, dose response (AID 1915); format: functional, organism-based;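 further: potency for reduction of bacterial viability or growth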
[21] = test system: Streptococcus sp. 'group A'; test: Streptococcus pyogenes SK(-)GAS viability under kanamycin – luminescence, BacTiterGlo, confirmation, counter-screen for streptokinase expression inhibitor project, dose response (AID 1900); format: functional, organism-based

## CCCCC(=O)N1CCN(c2nc3ccc(F)cc3s2)CC1
Cells [1]
  EC50: > 350 µM (not active)
Cells [2]
  EC50: 4.69 µM (active)

## O=[N+]([O-])c1cccc(-c2nc3ccccc3s/c2=N/O)c1
[3]
  IC50: 22 µM (not active)

## C/C(=N\NC(=O)c1cc(-c2cccnc2)nc2ccccc12)c1ccc(O)cc1O
Cells [1]
  EC50: 10.9 µM (active)
[4]
  EC50: 5.99 µM (active)
Cells [2]
  EC50: > 350 µM (not active)
[5]
  EC50: > 38 µM (not active)
[6]
  EC50: 8.88 µM (active)
INS1
  AC50: 0.661 µM (active)
[7]
  EC50: 9.7 µM (active)
[8]
  EC50: 4.94 µM (active)

## Cc1ccc(OCc2nnc(SCC(=O)c3cccc([N+](=O)[O-])c3)n2C)cc1
[3]
  IC50: 4.87 µM (not active)

## COc1ccc(-n2ncc(S(=O)(=O)c3ccccc3)c2-c2ccc(Cl)cc2)cc1
[3]
  IC50: 3.23 µM (not active)

## CC(C)(C)c1cc(Br)c(O)c(N=Nc2ccc(S(=O)(=O)N3CCOCC3)cc2)c1
Fatty acid synthase [9]
  IC50: 3.8 µM (active)
Fatty acid synthase [10]
  IC50: 2.66 µM (active)

## Cc1ccc(C(=O)c2cc([N+](=O)[O-])ccc2N2CCCCC2)cc1C
[11]
  EC50: 0.966 µM (active)
BJ [12]
  EC50: 35.6 µM (active)
BJ [13]
  EC50: 1.69 µM (active)
[14]
  IC50: > 80 µM (inactive)
BJ [15]
  EC50: 1.33 µM (active)

## O=C(c1ccccc1)c1cn(CC(=O)N2CCCc3ccccc32)c2ccccc12
[3]
  IC50: < 0.4 µM (not active)

## CC(=O)N1CCCc2cc(S(=O)(=O)N3CCCC(C(=O)N4CCN(c5cccc(Cl)c5)CC4)C3)ccc21 (stereo unspecified)
[16]
  AC50: 1.13 µM (active)
[17]
  AC50: 1.9 µM (active)
INS1
  AC50: 2.88 µM (active)
[18]
  AC50: 3.29 µM (active)

## Cc1[nH]n(-c2ccc(C(=O)O)cc2)c(=O)c1CCO
[3]
  IC50: > 50 µM (not active)

## CCCCSc1nc(C)cc(SCC(=O)N/N=C/c2cccc(OC)c2O)n1
Cells [1]
  EC50: 15 µM (active)
[19]
  AC50: 7.03 µM (active)
[4]
  EC50: 11.6 µM (active)
[20]
  EC50: > 260 µM (inactive)
Cells [2]
  EC50: > 350 µM (not active)
[6]
  EC50: 10.2 µM (active)
Streptococcus
  EC50: 2.61 µM (active)
[7]
  EC50: 9.62 µM (active)
[21]
  EC50: 2.31 µM (active)

## CCOC(=O)C(C)Oc1cccc2c(=O)n(CC(=O)NCc3ccccc3)ccc12 (stereo unspecified)
[11]
  EC50: 0.645 µM (active)
BJ [12]
  EC50: 7.35 µM (active)
BJ [13]
  EC50: 0.772 µM (active)
[14]
  IC50: > 80 µM (inactive)
BJ [15]
  EC50: 0.785 µM (active)

## COc1ccc(Nc2nc3cc(C)ccc3cc2C#N)c(OC)c1
[14]
  IC50: > 80 µM (inactive)

## O=C(N/N=C/c1ccccc1O)c1ccc2c(c1)OCO2
Cells [1]
  EC50: 101 µM (active)
Cells [2]
  EC50: 12.6 µM (active)
Streptococcus
  EC50: 4.46 µM (active)
INS1
  AC50: 2.58 µM (active)
[21]
  EC50: 4.24 µM (active)
